Consider 33 compounds from patent publication US9890171B2, “Aldosterone synthase inhibitors” (Boehringer Ingelheim International GmbH, priority 2014, dated 2018).

Chain of aldosterone synthase (CYP11B2) (A0A2K5UPL9 1-503): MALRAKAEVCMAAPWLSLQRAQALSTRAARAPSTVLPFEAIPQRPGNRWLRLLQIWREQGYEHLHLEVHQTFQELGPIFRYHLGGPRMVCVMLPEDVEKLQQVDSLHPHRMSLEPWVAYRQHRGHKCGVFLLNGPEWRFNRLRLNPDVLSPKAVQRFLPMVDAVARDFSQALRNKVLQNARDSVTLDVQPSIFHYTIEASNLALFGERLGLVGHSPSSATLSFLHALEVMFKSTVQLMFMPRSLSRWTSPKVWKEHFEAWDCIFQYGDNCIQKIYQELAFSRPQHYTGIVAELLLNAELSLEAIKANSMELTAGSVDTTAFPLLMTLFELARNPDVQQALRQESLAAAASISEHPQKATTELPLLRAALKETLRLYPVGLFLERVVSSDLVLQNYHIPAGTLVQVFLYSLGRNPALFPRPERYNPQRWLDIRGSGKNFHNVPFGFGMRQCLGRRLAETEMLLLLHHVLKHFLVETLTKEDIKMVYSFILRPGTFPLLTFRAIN

The experiment deals with aldosterone synthase (CYP11B2) (Macaca fascicularis, UniProt A0A2K5UPL9). Put plainly: aldosterone synthase inhibition assay. To be noted: cynomolgus adrenal gland mitochondria, 2 μM corticosterone, aldosterone quantified by mass spectrometry. The class given is biochemical, cynomolgus monkey. The essentials:
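Cynomolgus adrenal mitochondria ([…]) used as CYP11B2 source with 2 μM corticosterone in 100 mM potassium phosphate pH 7.4, 1% DMSO; reaction started with 1 mM NADPH, run 60-90 min at 37° C. Aldosterone measured by mass spectrometry; IC50 from 4-parameter logistic fit, no-NADPH blank as 0%.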
In general, IC50 refers to the concentration at which inhibition is half-maximal. High values mean a need for much substance, low ones inhibition by little substance. With `CCC(=O)NC1COCc2c(-c3ccc4c(c3)C(O)CCO4)cncc21` (single isomer, unassigned) [Compound 135, N-[8-(4-Hydroxy-chroman-6-yl)-3,4-dihydro-1H-pyrano[4,3-c]pyridin-4-yl]-propionamide], the IC50 worked out at 341 nM.
To `CCS(=O)(=O)NC1COCc2c(-c3ccc4c(c3)C(O)CCO4)cncc21` (single isomer, unassigned) [Compound 136, Ethanesulfonic acid [8-(4-hydroxy-chroman-6-yl)-3,4-dihydro-1H-pyrano[4,3-c]pyridin-4-yl]-amide] belongs 10000 nM; to `CC1(O)CCOc2ccc(-c3cncc4c3COCC4O)cc21` (single isomer, unassigned) [Compound 137, 8-(4-Hydroxy-4-methyl-chroman-6-yl)-3,4-dihydro-1H-pyrano[4,3-c]pyridin-4-ol], 1870 nM.
Regarding `CC1(O)CCOc2ccc(-c3cncc4c3COCC4O)cc21` (single isomer, unassigned) [Compound 138, 8-(4-Hydroxy-4-methyl-chroman-6-yl)-3,4-dihydro-1H-pyrano[4,3-c]pyridin-4-ol], the IC50 was found to be 1560 nM.
Under `CC1(O)CCOc2ccc(-c3cncc4c3COCC4O)cc21` (single isomer, unassigned) [Compound 139, 8-(4-Hydroxy-4-methyl-chroman-6-yl)-3,4-dihydro-1H-pyrano[4,3-c]pyridin-4-ol] stands 2800 nM; under `CC1(O)CCOc2ccc(-c3cncc4c3COCC4O)cc21` (single isomer, unassigned) [Compound 140, 8-(4-Hydroxy-4-methyl-chroman-6-yl)-3,4-dihydro-1H-pyrano[4,3-c]pyridin-4-ol], 12000 nM; under `OC1COCc2c(-c3ccc4c(c3)C(F)(F)CCO4)cncc21` (single isomer, unassigned) [Compound 141, 8-(4,4-Difluoro-chroman-6-yl)-3,4-dihydro-1H-pyrano[4,3-c]pyridin-4-ol], 339 nM.
Compound `OC1COCc2c(-c3ccc4c(c3)C(F)(F)CCO4)cncc21` (single isomer, unassigned) [Compound 142, 8-(4,4-Difluoro-chroman-6-yl)-3,4-dihydro-1H-pyrano[4,3-c]pyridin-4-ol] returned an IC50 of 118 nM.
Under `CCC(=O)NC1COCc2c(-c3ccc4c(c3)C(F)(F)CCO4)cncc21` (single isomer, unassigned) [Compound 143, N-[8-(4,4-Difluoro-chroman-6-yl)-3,4-dihydro-1H-pyrano[4,3-c]pyridin-4-yl]-propionamide] stands 27.9 nM; under `CCS(=O)(=O)NC1COCc2c(-c3ccc4c(c3)C(F)(F)CCO4)cncc21` (single isomer, unassigned) [Compound 144, Ethanesulfonic acid [8-(4,4-difluoro-chroman-6-yl)-3,4-dihydro-1H-pyrano[4,3-c]pyridin-4-yl]-amide], 470 nM.
To `O=C1NCCOc2cc(-c3cncc4c3COCC4O)ccc21` (single isomer, unassigned) [Compound 145, 8-(4-Hydroxy-3,4-dihydro-1H-pyrano[4,3-c]pyridin-8-yl)-3,4-dihydro-2H-benzo[f][1,4]oxazepin-5-one] belongs 738 nM.
Under `O=C1NCCOc2cc(-c3cncc4c3COCC4O)ccc21` (single isomer, unassigned) [Compound 146, 8-(4-Hydroxy-3,4-dihydro-1H-pyrano[4,3-c]pyridin-8-yl)-3,4-dihydro-2H-benzo[f][1,4]oxazepin-5-one] stands 9730 nM; under `CCC(=O)NC1COCc2c(-c3ccc4c(c3)OCCNC4=O)cncc21` (single isomer, unassigned) [Compound 147, N-[8-(5-Oxo-2,3,4,5-tetrahydro-benzo[f][1,4]oxazepin-8-yl)-3,4-dihydro-1H-pyrano[4,3-c]pyridin-4-yl]-propionamide], 1690 nM; under `OC1COCc2c(-c3ccc4c(c3)COCCC4(F)F)cncc21` (single isomer, unassigned) [Compound 148, 8-(5,5-Difluoro-1,3,4,5-tetrahydro-benzo[c]oxepin-8-yl)-3,4-dihydro-1H-pyrano[4,3-c]pyridin-4-ol], 83.7 nM.
In turn, `Cn1ncc2c(F)cc(-c3cncc4c3COCC4N)cc21` (single isomer, unassigned) [Compound 149, 8-(4-Fluoro-1-methyl-1H-indazol-6-yl)-3,4-dihydro-1H-pyrano[4,3-c]pyridin-4-ylamine] registered a half-inhibitory concentration (IC50) of 17.3 nM.
For `CCC(=O)NC1COCc2c(-c3cc(F)c4cnn(C)c4c3)cncc21` (single isomer, unassigned) [Compound 150, N-[8-(4-Fluoro-1-methyl-1H-indazol-6-yl)-3,4-dihydro-1H-pyrano[4,3-c]pyridin-4-yl]-propionamide], it took 17.4 nM to reach half-maximal inhibition (IC50).
As to `CC(=O)NC1COCc2c(-c3ccc4c(c3)CCC4=O)cncc21` (single isomer, unassigned) [Compound 151, N-[8-(1-Oxo-indan-5-yl)-3,4-dihydro-1H-pyrano[4,3-c]pyridin-4-yl]-acetamide], inhibition was half-maximal at 4880 nM (IC50).
To `CC(=O)NC1COCc2c(-c3ccc4c(c3)CCC4=O)cncc21` (single isomer, unassigned) [Compound 152, N-[8-(1-Oxo-indan-5-yl)-3,4-dihydro-1H-pyrano[4,3-c]pyridin-4-yl]-acetamide] belongs 50.2 nM; to `CC(C)(O)CC(=O)NC1COCc2c(-c3ccc4c(c3)CCC4=O)cncc21` (single isomer, unassigned) [Compound 153, 3-Hydroxy-3-methyl-N-[8-(1-oxo-indan-5-yl)-3,4-dihydro-1H-pyrano[4,3-c]pyridin-4-yl]-butyramide], 70 nM; to `CC(=O)NC1COCc2c(-c3ccc4oc(=O)ccc4c3)cncc21` (single isomer, unassigned) [Compound 154, N-[8-(2-Oxo-2H-chromen-6-yl)-3,4-dihydro-1H-pyrano[4,3-c]pyridin-4-yl]-acetamide], 26.3 nM.
Turning to `CCC(=O)NC1COCc2c(-c3ccc4cnn(C)c4c3)cncc21` (single isomer, unassigned) [Compound 155, N-[8-(1-Methyl-1H-indazol-6-yl)-3,4-dihydro-1H-pyrano[4,3-c]pyridin-4-yl]-propionamide], the IC50 worked out at 3800 nM.
The compound `CCC(=O)NC1COCc2c(-c3ccc4onc(C)c4c3)cncc21` (single isomer, unassigned) [Compound 156, N-[8-(3-Methyl-benzo[d]isoxazol-5-yl)-3,4-dihydro-1H-pyrano[4,3-c]pyridin-4-yl]-propionamide] showed a half-maximal inhibitory concentration (IC50) of 312 nM.
To `CCS(=O)(=O)NC1COCc2c(-c3ccc4c(c3)CCC4=O)cncc21` (single isomer, unassigned) [Compound 157, Ethanesulfonic acid [8-(1-oxo-indan-5-yl)-3,4-dihydro-1H-pyrano[4,3-c]pyridin-4-yl]-amide] belongs 46 nM.
Under `CCS(=O)(=O)NC1COCc2c(-c3ccc4oc(=O)ccc4c3)cncc21` (single isomer, unassigned) [Compound 158, Ethanesulfonic acid [8-(2-oxo-2H-chromen-6-yl)-3,4-dihydro-1H-pyrano[4,3-c]pyridin-4-yl]-amide] stands 13 nM; under `CCS(=O)(=O)NC1COCc2c(-c3ccc4onc(C)c4c3)cncc21` (single isomer, unassigned) [Compound 159, Ethanesulfonic acid [8-(3-methyl-benzo[d]isoxazol-5-yl)-3,4-dihydro-1H-pyrano[4,3-c]pyridin-4-yl]-amide], 797 nM.
`NC(=O)N1CCCc2cc(-c3cncc4c3C(O)COC4)cnc21` (single isomer, unassigned) [Compound 161, 6-(4-Hydroxy-3,4-dihydro-1H-pyrano[3,4-c]pyridin-5-yl)-3,4-dihydro-2H-[1,8]naphthyridine-1-carboxylic acid amide] registered an IC50 of 35.3 nM.
To `NC(=O)N1CCCc2cc(-c3cncc4c3C(O)COC4)cnc21` (single isomer, unassigned) [Compound 162, 6-(4-Hydroxy-3,4-dihydro-1H-pyrano[3,4-c]pyridin-5-yl)-3,4-dihydro-2H-[1,8]naphthyridine-1-carboxylic acid amide] belongs 71.4 nM; to `NC(=O)N1CCCc2cc(-c3cncc4c3COCC4O)cnc21` (single isomer, unassigned) [Compound 163, 6-(4-Hydroxy-3,4-dihydro-1H-pyrano[4,3-c]pyridin-8-yl)-3,4-dihydro-2H-[1,8]naphthyridine-1-carboxylic acid amide], 44.3 nM; to `NC(=O)N1CCCc2cc(-c3cncc4c3COCC4O)cnc21` (single isomer, unassigned) [Compound 164, 6-(4-Hydroxy-3,4-dihydro-1H-pyrano[4,3-c]pyridin-8-yl)-3,4-dihydro-2H-[1,8]naphthyridine-1-carboxylic acid amide], 41.5 nM.
As to `Cn1ncc2ccc(-c3cncc4c3C(O)COC4)cc21` (single isomer, unassigned) [Compound 165, 5-(1-Methyl-1H-indazol-6-yl)-3,4-dihydro-1H-pyrano[3,4-c]pyridin-4-ol], the IC50 worked out at 224 nM.
On to `Cn1ncc2ccc(-c3cncc4c3C(O)COC4)cc21` (single isomer, unassigned) [Compound 166, 5-(1-Methyl-1H-indazol-6-yl)-3,4-dihydro-1H-pyrano[3,4-c]pyridin-4-ol], for which the half-maximal inhibitory concentration (IC50) is 36.5 nM.
To `OC1COCc2cncc(-c3ccc4cnccc4c3)c21` (single isomer, unassigned) [Compound 167, 5-Isoquinolin-6-yl-3,4-dihydro-1H-pyrano[3,4-c]pyridin-4-ol] belongs 156 nM; to `OC1COCc2cncc(-c3ccc4cnccc4c3)c21` (single isomer, unassigned) [Compound 168, 5-Isoquinolin-6-yl-3,4-dihydro-1H-pyrano[3,4-c]pyridin-4-ol], 40.5 nM.
